Assay results as given in patent US11225505B2, “Antimicrobial polymyxin derivative compounds” (MONASH UNIVERSITY, priority 2015, dated 2022).
≈ marks a conversion by molar mass, not a printed value. Where a SMILES comes first, the peptide text is derived from it. Bridges are numbered along the chain shown (N, C = ends). [ ]: non-standard residue; d: D form. The star is where a group is joined. X43 = O=C(c1ccc(-c2ccc(Cl)cc2)cn1)*; X55 = O=C(c1ccc(-c2ccc(Cl)nc2)cc1)*; X35 = O=C(c1cc(-c2ccc(Cl)cc2)on1)*; X57 = O=C(c1nc2cc(Cl)ccc2[nH]1)*; X58 = Cn1cc(CC(=O)*)c2ccccc21; X15 = O=C(c1ccc(Cl)nc1Cl)*; X21 = O=C(c1cnc(Cl)cc1Cl)*; X67 = O=C(c1cc(Br)sc1Br)*; Dab = NCC[C@H](N)C(=O)O; X61 = O=C(c1ccc(Br)s1)*; Abu = CC[C@H](N)C(=O)O; Dap = NC[C@H](N)C(=O)O

Key:
Format in all cases: cell-based
[1] = system: Acinetobacter baumannii ATCC 17978; details: ATCC 17978
Outline: (§1)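 The read-out is the MIC, obtained by CLSI broth microdilution (M100-S24) in cation-adjusted Mueller-Hinton broth. The compounds were lipopeptide TFA salts, and polymyxin B sulphate served as control.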

[2] = system: Acinetobacter baumannii FADDI-AB034; details: FADDI-AB034
Outline: as §1

[3] = system: Enterobacter cloacae FADDI-EC001; details: FADDI-EC001
Outline: (§2)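 MICs were determined by broth microdilution in cation-adjusted Mueller-Hinton broth following the CLSI M100-S24 protocol. Lipopeptides were tested as trifluoroacetic acid salts against polymyxin-susceptible Gram-negative strains, with polymyxin B sulphate as control. FADDI-PA022 and FADDI-AB034 are multidrug-resistant clinical isolates.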

[4] = system: Enterobacter cloacae FADDI-EC003; details: FADDI-EC003
Outline: as §1

[5] = system: Enterobacter cloacae FADDI-EC006; details: FADDI-EC006
Outline: as §1

[6] = system: Klebsiella pneumoniae FADDI-KP022; details: FADDI-KP022
Outline: as §1

[7] = system: Klebsiella pneumoniae FADDI-KP032; details: FADDI-KP032
Outline: as §1

[8] = system: Klebsiella pneumoniae Kp BM1; details: Kp BM1
Outline: as §2

[9] = system: Pseudomonas aeruginosa ATCC 27853; details: ATCC 27853
Outline: as §1

[10] = system: Pseudomonas aeruginosa FADDI-PA01; details: FADDI-
Outline: as §1

[11] = system: Pseudomonas aeruginosa FADDI-PA022; details: FADDI-PA022
Outline: as §1

[12] = system: Pseudomonas aeruginosa FADDI-PA038; details: FADDI-PA038
Outline: as §1

[13] = system: Acinetobacter baumannii FADDI-AB030; assay: microbe, parasite or virus in culture; details: FADDI-AB030
Outline: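 Broth microdilution MIC in cation-adjusted Mueller-Hinton broth per CLSI M100-S24; lipopeptides tested as TFA salts. FADDI-AB030 is a multidrug-resistant clinical isolate. Polymyxin B sulphate served as control.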

Structure (SMILES)	Minimum inhibitory concentration [1] [µg/mL]	Minimum inhibitory concentration [2] [µg/mL]	Minimum inhibitory concentration [3] [µg/mL]	Minimum inhibitory concentration [4] [µg/mL]	Minimum inhibitory concentration [5] [µg/mL]	Minimum inhibitory concentration [6] [µg/mL]	Minimum inhibitory concentration [7] [µg/mL]	Minimum inhibitory concentration [8] [µg/mL]	Minimum inhibitory concentration [9] [µg/mL]	Minimum inhibitory concentration [10] [µg/mL]	Minimum inhibitory concentration [11] [µg/mL]	Minimum inhibitory concentration [12] [µg/mL]	Minimum inhibitory concentration [13] [µg/mL]
CC[C@@H]1NC(=O)[C@@H](CC(C)C)NC(=O)[C@H](CCN)NC(=O)[C@@H](NC(=O)[C@H](CN)NC(=O)[C@@H](NC(=O)[C@H](CCN)NC(=O)c2nc3cc(Cl)ccc3[nH]2)[C@@H](C)O)CCNC(=O)[C@H]([C@@H](C)O)NC(=O)[C@H](CCN)NC(=O)[C@H](CCN)NC1=O [Compound 71] (X57-[Dab]T[Dap][Dab][Dab][dL][Abu][Dab][Dab]T; lactam 4-C)	0.5 (≈ 0.429 µM)	0.5 (≈ 0.429 µM)	0.25 (≈ 0.214 µM)	<0.125	<0.125	<0.125	<0.125	<0.125	0.5 (≈ 0.429 µM)	0.25 (≈ 0.214 µM)	0.5 (≈ 0.429 µM)	2 (≈ 1.72 µM)	0.25 (≈ 0.214 µM)
CC[C@@H]1NC(=O)[C@@H](CC(C)C)NC(=O)[C@H](CCN)NC(=O)[C@@H](NC(=O)[C@H](CN)NC(=O)[C@@H](NC(=O)[C@H](CCN)NC(=O)Cc2cn(C)c3ccccc23)[C@@H](C)O)CCNC(=O)[C@H]([C@@H](C)O)NC(=O)[C@H](CCN)NC(=O)[C@H](CCN)NC1=O [Compound 62] (X58-[Dab]T[Dap][Dab][Dab][dL][Abu][Dab][Dab]T; lactam 4-C)	0.5 (≈ 0.432 µM)	0.5 (≈ 0.432 µM)	<0.125	0.25 (≈ 0.216 µM)	0.5 (≈ 0.432 µM)	<0.125	<0.125	0.25 (≈ 0.216 µM)	0.5 (≈ 0.432 µM)	1 (≈ 0.863 µM)	0.5 (≈ 0.432 µM)	0.5 (≈ 0.432 µM)	0.5 (≈ 0.432 µM)
CC[C@@H]1NC(=O)[C@@H](CC(C)C)NC(=O)[C@H](CCN)NC(=O)[C@@H](NC(=O)[C@H](CN)NC(=O)[C@@H](NC(=O)[C@H](CCN)NC(=O)c2cc(-c3ccc(Cl)cc3)on2)[C@@H](C)O)CCNC(=O)[C@H]([C@@H](C)O)NC(=O)[C@H](CCN)NC(=O)[C@H](CCN)NC1=O [Compound 94] (X35-[Dab]T[Dap][Dab][Dab][dL][Abu][Dab][Dab]T; lactam 4-C)	1 (≈ 0.838 µM)	0.5 (≈ 0.419 µM)	0.25 (≈ 0.21 µM)	0.25 (≈ 0.21 µM)	<0.125	<0.125	<0.125	0.5 (≈ 0.419 µM)	0.5 (≈ 0.419 µM)	0.5 (≈ 0.419 µM)	0.5 (≈ 0.419 µM)	1 (≈ 0.838 µM)	0.25 (≈ 0.21 µM)
CC[C@@H]1NC(=O)[C@@H](CC(C)C)NC(=O)[C@H](CCN)NC(=O)[C@@H](NC(=O)[C@H](CN)NC(=O)[C@@H](NC(=O)[C@H](CCN)NC(=O)c2ccc(Br)s2)[C@@H](C)O)CCNC(=O)[C@H]([C@@H](C)O)NC(=O)[C@H](CCN)NC(=O)[C@H](CCN)NC1=O [Compound 78] (X61-[Dab]T[Dap][Dab][Dab][dL][Abu][Dab][Dab]T; lactam 4-C)	0.25 (≈ 0.213 µM)	1 (≈ 0.85 µM)	0.25 (≈ 0.213 µM)	<0.125	0.25 (≈ 0.213 µM)	0.25 (≈ 0.213 µM)	0.5 (≈ 0.425 µM)	<0.125	0.25 (≈ 0.213 µM)	<0.125	0.25 (≈ 0.213 µM)	0.5 (≈ 0.425 µM)	0.5 (≈ 0.425 µM)
CC(C)C[C@H]1NC(=O)[C@H](CCN)NC(=O)[C@@H](NC(=O)[C@H](CN)NC(=O)[C@@H](NC(=O)[C@H](CCN)NC(=O)c2ccc(-c3ccc(Cl)cc3)cn2)[C@@H](C)O)CCNC(=O)[C@H]([C@@H](C)O)NC(=O)[C@H](CCN)NC(=O)[C@H](CCN)NC(=O)[C@H]([C@@H](C)O)NC1=O [Compound 15] (X43-[Dab]T[Dap][Dab][Dab][dL]T[Dab][Dab]T; lactam 4-C)	0.5 (≈ 0.41 µM)	0.5 (≈ 0.41 µM)	0.25 (≈ 0.205 µM)	<0.125	0.25 (≈ 0.205 µM)	<0.125	0.25 (≈ 0.205 µM)	0.5 (≈ 0.41 µM)	1 (≈ 0.82 µM)	2 (≈ 1.64 µM)	2 (≈ 1.64 µM)	1 (≈ 0.82 µM)	1 (≈ 0.82 µM)
CC[C@@H]1NC(=O)[C@@H](CC(C)C)NC(=O)[C@H](CCN)NC(=O)[C@@H](NC(=O)[C@H](CN)NC(=O)[C@@H](NC(=O)[C@H](CCN)NC(=O)c2cnc(Cl)cc2Cl)[C@@H](C)O)CCNC(=O)[C@H]([C@@H](C)O)NC(=O)[C@H](CCN)NC(=O)[C@H](CCN)NC1=O [Compound 2] (X21-[Dab]T[Dap][Dab][Dab][dL][Abu][Dab][Dab]T; lactam 4-C)	8 (≈ 6.89 µM)	8 (≈ 6.89 µM)	0.25 (≈ 0.215 µM)	2 (≈ 1.72 µM)	2 (≈ 1.72 µM)	<0.125	0.5 (≈ 0.431 µM)	0.5 (≈ 0.431 µM)	0.5 (≈ 0.431 µM)	0.5 (≈ 0.431 µM)	0.5 (≈ 0.431 µM)	1 (≈ 0.861 µM)	2 (≈ 1.72 µM)
CC(C)C[C@H]1NC(=O)[C@H](CCN)NC(=O)[C@@H](NC(=O)[C@H](CN)NC(=O)[C@@H](NC(=O)[C@H](CCN)NC(=O)c2ccc(-c3ccc(Cl)nc3)cc2)[C@@H](C)O)CCNC(=O)[C@H]([C@@H](C)O)NC(=O)[C@H](CCN)NC(=O)[C@H](CCN)NC(=O)[C@H]([C@@H](C)O)NC1=O [Compound 16] (X55-[Dab]T[Dap][Dab][Dab][dL]T[Dab][Dab]T; lactam 4-C)	2 (≈ 1.64 µM)	4 (≈ 3.28 µM)	0.5 (≈ 0.41 µM)	<0.125	0.5 (≈ 0.41 µM)	<0.125	0.25 (≈ 0.205 µM)	2 (≈ 1.64 µM)	0.5 (≈ 0.41 µM)	0.5 (≈ 0.41 µM)	1 (≈ 0.82 µM)	1 (≈ 0.82 µM)	8 (≈ 6.56 µM)
CC[C@@H]1NC(=O)[C@@H](CC(C)C)NC(=O)[C@H](CCN)NC(=O)[C@@H](NC(=O)[C@H](CN)NC(=O)[C@@H](NC(=O)[C@H](CCN)NC(=O)c2cc(Br)sc2Br)[C@@H](C)O)CCNC(=O)[C@H]([C@@H](C)O)NC(=O)[C@H](CCN)NC(=O)[C@H](CCN)NC1=O [Compound 76] (X67-[Dab]T[Dap][Dab][Dab][dL][Abu][Dab][Dab]T; lactam 4-C)	<0.125	<0.125	0.25 (≈ 0.199 µM)	<0.125	<0.125	<0.125	<0.125	<0.125	0.25 (≈ 0.199 µM)	0.25 (≈ 0.199 µM)	0.25 (≈ 0.199 µM)	0.5 (≈ 0.398 µM)	0.25 (≈ 0.199 µM)
CC[C@@H]1NC(=O)[C@@H](CC(C)C)NC(=O)[C@H](CCN)NC(=O)[C@@H](NC(=O)[C@H](CN)NC(=O)[C@@H](NC(=O)[C@H](CCN)NC(=O)c2ccc(Cl)nc2Cl)[C@@H](C)O)CCNC(=O)[C@H]([C@@H](C)O)NC(=O)[C@H](CCN)NC(=O)[C@H](CCN)NC1=O [Compound 7] (X15-[Dab]T[Dap][Dab][Dab][dL][Abu][Dab][Dab]T; lactam 4-C)	1 (≈ 0.861 µM)	2 (≈ 1.72 µM)	<0.125	<0.125	0.25 (≈ 0.215 µM)	<0.125	1 (≈ 0.861 µM)	0.5 (≈ 0.431 µM)	1 (≈ 0.861 µM)	0.25 (≈ 0.215 µM)	1 (≈ 0.861 µM)	0.5 (≈ 0.431 µM)	0.5 (≈ 0.431 µM)
